Measured values from patent US10307413B2, “Tetrahydro- and dihydro-isoquinoline PRMT5 inhibitors and uses thereof” (Epizyme, Inc., priority 2013, dated 2019).
Where two headings read alike, the source gives them in different places.

Tests used:
[1] = tested on: symmetric di-methyl arginine in Z-138 cells; experiment: Z-138 Methylation Assay (In Cell Western for symmetric di-methyl arginine and DNA content); type: cell-based; settings: Homo sapiens, read-out: ICW EC50
In short: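 Z-138 cells (50,000 cells/mL) treated with compound 96 h at 37 °C, then fixed and stained for symmetric di-methyl arginine (800 nm) with DRAQ5 DNA counterstain (700 nm) on Licor Odyssey.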

Z-138 cell line = experiment: Z-138 Proliferation Assay (Cell Titer Glo, 5 days); type: cell-based; settings: Homo sapiens, read-out: Proliferation EC50
In short: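 Z-138 cells exposed 5 days at 37 °C, 5% CO2 to nine-point 3-fold dilutions (final top 20 μM, 0.2% DMSO), in triplicate. Viability read as ATP by CellTiter-Glo luminescence; IC50 from 4-parameter fit of normalized dose-response curves.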

SMILES	EC50 [1] [nM]	EC50 ([1]; In Cell Western methylation) [nM]	EC50 (Z-138 cell line; 120 h, Z-138 cells, 5 days) [nM]	EC50 (Z-138 cell line; 120 h, Z-138 cells, 5 days, Cell Titer Glo) [nM]	EC50 (Z-138 cell line; Z-138, 120 h) [nM]
O=C(NCC(O)CN1CCc2ccccc2C1)c1cccc(CN2CCN(CCO)CC2)c1 (stereo not shown) [Compound 113]	101 to 1000		10000 to 50000		
O=C(NC[C@H](O)CN1CCc2ccccc2C1)c1ccccc1 [Compound 3, (S)—N-(3-(3,4-dihydroisoquinolin-2(1H)-yl)-2-hydroxypropyl)benzamide]	< 100		1000 to 10000		
CC(=O)NCCN1CCN(Cc2cccc(C(=O)NCC(O)CN3CCc4ccccc4C3)c2)CC1 (stereo not shown) [Compound 156]	101 to 1000		1000 to 10000		
CS(=O)(=O)N1CCC(Nc2cccc(C(=O)NCC(O)CN3CCc4ccccc4C3)c2)CC1 (stereo not shown) [Compound 125]	< 100		101 to 1000		
O=C(NC[C@H](O)CN1CCc2ccccc2C1)c1cccc(NC2CCOC2)c1 (stereo partly shown) [Compound 80]	< 100		101 to 1000		
COc1ccc(C(=O)NCC(O)CN2CCc3ccccc3C2)cc1NC1CCOCC1 (stereo not shown) [Compound 67]	101 to 1000		10000 to 50000		
O=C(NCC(O)CN1CCc2ccccc2C1)c1cccc(CNC2CCOCC2)c1 (stereo not shown) [Compound 15, N-(3-(3,4-dihydroisoquinolin-2(1H)-yl)-2-hydroxypropyl)-3-(((tetrahydro-2H-pyran-4-yl)amino)methyl)benzamide]	101 to 1000		10000 to 50000		
Cn1cc(C(=O)NC[C@H](O)CN2CCc3ccccc3C2)c2ccccc21 [Compound 246]	101 to 1000				1000 to 10000
CN(c1ccc(C(=O)NCC(O)CN2CCc3ccccc3C2)cc1)C1CCOC1 (stereo not shown) [Compound 144]	< 100		1000 to 10000		
O=C(NCC(O)CN1CCc2ccccc2C1)c1cccc(OCCN2CCOCC2)c1 (stereo not shown) [Compound 133]	< 100		1000 to 10000		
CN(C)CCOc1cccc(C(=O)NCC(O)CN2CCc3ccccc3C2)c1 (stereo not shown) [Compound 28, N-(3-(3,4-dihydroisoquinolin-2(1H)-yl)-2-hydroxypropyl)-3-(2-(dimethylamino)ethoxy)benzamide]	101 to 1000		10000 to 50000		
CC(=O)N1CCN(Cc2cccc(C(=O)NCC(O)CN3CCc4ccccc4C3)c2)CC1 (stereo not shown) [Compound 100]	< 100		1000 to 10000		
O=C(NCC(O)CN1CCc2ccccc2C1)c1cccc(CC2CCOCC2)c1 (stereo not shown) [Compound 59]	< 100		101 to 1000		
CS(=O)(=O)N1CCN(Cc2cccc(C(=O)NCC(O)CN3CCc4ccccc4C3)c2)CC1 (stereo not shown) [Compound 91]	< 100		1000 to 10000		
CN1CCN(c2cccc(C(=O)NCC(O)CN3CCc4ccccc4C3)c2)CC1 (stereo not shown) [Compound 36]	101 to 1000		10000 to 50000		
CC(=O)N1CCC(Nc2cccc(C(=O)NCC(O)CN3CCc4ccccc4C3)c2)C1 (stereo not shown) [Compound 121]	< 100		101 to 1000		
O=C(NCC(O)CN1CCc2ccccc2C1)c1cccc(NC2CCNC2)c1 (stereo not shown) [Compound 93]	1000 to 10000		> 20000		
CC(=O)N1CCC(Nc2ccc(C(=O)NCC(O)CN3CCc4ccccc4C3)cc2)CC1 (stereo not shown) [Compound 127]	< 100		1000 to 10000		
CC(C)N1CCC(Nc2cccc(C(=O)NCC(O)CN3CCc4ccccc4C3)c2)C1 (stereo not shown) [Compound 101]	< 100		10000 to 50000		
O=C(NCC(O)CN1CCc2ccccc2C1)c1ccc(NC2CCOCC2)cc1 (stereo not shown) [Compound 66]	101 to 1000		1000 to 10000		
O=C1COc2cc(C(=O)NCC(O)CN3CCc4ccccc4C3)ccc2N1 (stereo not shown) [Compound 89]	101 to 1000		> 20000		
CC(=O)N1CCC(Oc2cccc(C(=O)NCC(O)CN3CCc4ccccc4C3)c2)C1 (stereo not shown) [Compound 136]	< 100		1000 to 10000		
CS(=O)(=O)N1CCC(Nc2ccc(C(=O)NCC(O)CN3CCc4ccccc4C3)cc2)CC1 (stereo not shown) [Compound 141]	< 100		1000 to 10000		
CS(=O)(=O)N1CCC(Nc2cccc(C(=O)NCC(O)CN3CCc4ccccc4C3)c2)C1 (stereo not shown) [Compound 122]	< 100		101 to 1000		
COc1ccc(NC2CCOCC2)cc1C(=O)NCC(O)CN1CCc2ccccc2C1 (stereo not shown) [Compound 77]	101 to 1000		1000 to 10000		

Second part, led by results:

EC50 [1] [nM]	EC50 ([1]; In Cell Western methylation) [nM]	SMILES	EC50 (Z-138 cell line; 120 h, Z-138 cells, 5 days) [nM]	EC50 (Z-138 cell line; 120 h, Z-138 cells, 5 days, Cell Titer Glo) [nM]	EC50 (Z-138 cell line; Z-138, 120 h) [nM]
< 100		CC(=O)N1CCC(Nc2cncc(C(=O)NC[C@H](O)CN3CCc4ccccc4C3)c2)CC1 [Compound 302]	< 100		
< 100		CC(=O)N1CC[C@H](Nc2cccc(C(=O)NC[C@H](O)CN3CCc4ccccc4C3)c2)C1 [Compound 266]	101 to 1000		
< 100		O=C(NC[C@H](O)CN1CCc2ccccc2C1)c1cncc(OC2CCOCC2)c1 [Compound 183]	1000 to 10000		
101 to 1000		CN1CCOC(CNc2cc(C(=O)NC[C@H](O)CN3CCc4ccccc4C3)ccn2)C1 (stereo partly shown) [Compound 265]	1000 to 10000		
	< 100	CC(=O)N1CCC(Nc2cc(C(=O)NC[C@@H](O)CN3CCc4ccccc4C3)ncn2)CC1 [Compound 687]		101 to 1000	
< 100		O=C(NC[C@H](O)CN1CCc2ccccc2C1)c1cc(OC2CCOCC2)ncn1 [Compound 256]	1000 to 10000		
101 to 1000		O=C(NC[C@H](O)CN1CCc2ccccc2C1)c1csc2ccccc12 [Compound 248]	1000 to 10000		
101 to 1000		Cc1cc2ncc(C(=O)NC[C@H](O)CN3CCc4ccccc4C3)c(C)n2n1 [Compound 275]	1000 to 10000		
101 to 1000		O=C(NC[C@H](O)CN1CCc2ccccc2C1)c1cncc(NC2CCNC2)c1 (stereo partly shown) [Compound 259]	> 20000		
< 100		CS(=O)(=O)N1CC[C@H](Nc2cccc(C(=O)NC[C@H](O)CN3CCc4ccccc4C3)c2)C1 [Compound 268]	101 to 1000		
101 to 1000		CNCCN(C)c1cc(C(=O)NC[C@H](O)CN2CCc3ccccc3C2)ccn1 [Compound 233]	1000 to 10000		
< 100		CN1CCC(Nc2cc(C(=O)NC[C@H](O)CN3CCc4ccccc4C3)ccn2)C1 (stereo partly shown) [Compound 255]	1000 to 10000		
101 to 1000		O=C(NC[C@H](O)CN1CCc2ccccc2C1)c1c[nH]c2ccccc12 [Compound 240]	> 20000		
< 100		CS(=O)(=O)N1CC(Nc2cc(C(=O)NC[C@H](O)CN3CCc4ccccc4C3)ncn2)C1 [Compound 283]	101 to 1000		
101 to 1000		O=C(NC[C@@H](O)CN1CCc2ccccc2C1)c1cc(NC2CCOCC2)ncn1 [Compound 185]	1000 to 10000		
< 100		CN(CCOc1cccc(C(=O)NCC(O)CN2CCc3ccccc3C2)c1)CC(N)=O (stereo not shown) [Compound 277]	1000 to 10000		
101 to 1000		O=C(NC[C@H](O)CN1CCc2ccccc2C1)c1ccc2c(c1)CCO2 [Compound 243]	1000 to 10000		
101 to 1000		O=C(NC[C@H](O)CN1CCc2ccccc2C1)c1cccc2[nH]cnc12 [Compound 241]	1000 to 10000		
< 100		O=C(NC[C@H](O)CN1CCc2ccccc2C1)c1ccnc(NCC2CCCCN2)c1 (stereo partly shown) [Compound 237]	1000 to 10000		

EC50 [1] [nM]	EC50 ([1]; In Cell Western methylation) [nM]	SMILES	EC50 (Z-138 cell line; 120 h, Z-138 cells, 5 days) [nM]	EC50 (Z-138 cell line; 120 h, Z-138 cells, 5 days, Cell Titer Glo) [nM]	EC50 (Z-138 cell line; Z-138, 120 h) [nM]
< 100		CS(=O)(=O)N1CCC(Oc2ccc(C(=O)NCC(O)CN3CCc4ccccc4C3)cc2)C1 (stereo not shown) [Compound 198]	101 to 1000		
< 100		CN1CCCC(CNc2cc(C(=O)NC[C@H](O)CN3CCc4ccccc4C3)ccn2)C1 (stereo partly shown) [Compound 264]	1000 to 10000		
101 to 1000		O=C(NC[C@H](O)CN1CCc2ccccc2C1)c1ccc2cc(O)ccc2c1 [Compound 318]	1000 to 10000		
101 to 1000		CNC(=O)CCCN1CCN(Cc2cccc(C(=O)NCC(O)CN3CCc4ccccc4C3)c2)CC1 (stereo not shown) [Compound 175]	1000 to 10000		
> 1000		O=C(NC[C@H](O)CN1CCc2ccccc2C1)c1ccc2c(c1O)NCCC2 [Compound 328]	> 20000		
101 to 1000		O=C(NC[C@H](O)CN1CCc2ccccc2C1)c1ccc2c(c1)CCCC2 [Compound 247]	1000 to 10000		
< 100		CC(=O)N1CCC(Nc2cccc(C(=O)NC[C@H](O)CN3CCc4ccccc4C3)c2)CC1 [Compound 215]	< 100		
< 100		O=C(NCC(O)CN1CCc2ccccc2C1)c1cccc(N2CCS(=O)(=O)CC2)c1 (stereo not shown) [Compound 164]	1000 to 10000		
< 100		O=C(NC[C@H](O)CN1CCc2ccccc2C1)c1ccnc(NCCNCC(F)(F)F)c1 [Compound 316]	1000 to 10000		
101 to 1000		O=C(NC[C@@H](O)CN1CCc2ccccc2C1)c1ccc2ncccc2c1 [Compound 218]	10000 to 50000		
< 100		Cc1cnc(NC2CCOCC2)cc1C(=O)NC[C@H](O)CN1CCc2ccccc2C1 [Compound 307]	101 to 1000		
101 to 1000		O=C(NC[C@H](O)CN1CCc2ccccc2C1)c1ccc2c(c1)OCO2 [Compound 244]	1000 to 10000		
101 to 1000		O=C(NC[C@H](O)CN1CCc2ccccc2C1)c1cc(OC2CCNCC2)ncn1 [Compound 258]	10000 to 50000		
101 to 1000		CN(C)C(=O)CCCN1CCN(Cc2cccc(C(=O)NCC(O)CN3CCc4ccccc4C3)c2)CC1 (stereo not shown) [Compound 194]	1000 to 10000		
101 to 1000		CN(CC(N)=O)Cc1cccc(C(=O)NCC(O)CN2CCc3ccccc3C2)c1 (stereo not shown) [Compound 195]	10000 to 50000		
< 100		O=C(NCC(O)CN1CCc2ccccc2C1)c1ccc(N2CCS(=O)(=O)CC2)cc1 (stereo not shown) [Compound 179]	1000 to 10000		
< 100		O=C(NC[C@H](O)CN1CCc2ccccc2C1)c1ccnc(NC2CCCC2)c1 [Compound 334]	< 100		
< 100		CN(c1cc(C(=O)NC[C@H](O)CN2CCc3ccccc3C2)ccn1)C1CCC1 [Compound 333]	101 to 1000		
